What all share (test): Pre-emergent herbicidal activity (Table A)
What all share (assay type): in vivo

One assay deals with Velvetleaf. The conditions noted are these: Abutilon theophrasti, pre-emergence, Vele, 11.2 kg/ha, 10-14 days, read-out: herbicidal rating (% inhibition). Put shortly: (§1)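 Percent inhibition per species, scored on a rating scale, after pre-emergent soil incorporation: test compound in acetone or water carrier mixed into cover soil, layered over seeded topsoil or vegetative propagules.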

A further assay relates to Cocklebur. The conditions noted are these: Xanthium strumarium, pre-emergence, Cobu, 11.2 kg/ha, 10-14 days, read-out: herbicidal rating (% inhibition). Put shortly:
as §1

The next assay deals with Downy Brome. The conditions noted are these: Bromus tectorum, pre-emergence, Dobr, 11.2 kg/ha, 10-14 days, read-out: herbicidal rating (% inhibition). Put shortly: as §1
For another assay, the system named is Morningglory. The conditions noted are these: Ipomoea, pre-emergence, Mogl, 11.2 kg/ha, 10-14 days, read-out: herbicidal rating (% inhibition). Put shortly: as §1
For the next assay, the system named is Yellow Nutsedge. The conditions noted are these: Cyperus, pre-emergence, Yens, 11.2 kg/ha, 10-14 days, read-out: herbicidal rating (% inhibition). Put shortly:
as §1

The next assay relates to Barnyardgrass. Conditions: Echinochloa crus-galli, pre-emergence, Bygr, 11.2 kg/ha, 10-14 days, read-out: herbicidal rating (% inhibition). Put shortly:
as §1

The subject of another assay is Annual Bluegrass. Conditions: pre-emergence, Anbg, 11.2 kg/ha, 10-14 days, read-out: herbicidal rating (% inhibition). Here is the method:
(§2) Tables A and B summarize results of tests conducted to determine the pre-emergent herbicidal activity of the compounds of this invention. The herbicidal ratings used in Tables A and B were assigned according to a scale based on the percent inhibition of each plant species. The herbicide rating symbols in Tables A and B are defined as follows: […]
(§3) One set of pre-emergent tests was conducted as follows:
(§4) Topsoil was placed in a pan and compacted to a depth of 0.95 to 1.27 cm. from the top of the pan. A predetermined number of seeds of each of several monocotyledonous and dicotyledonous annual plant species and/or vegetative propagules of various perennial plant species were placed on top of the soil. The soil required to level fill a pan after seeding or adding vegetative propagules was weighed into another pan. A known amount of the test compound dissolved or suspended in an organic solvent or water and applied in acetone or water as a carrier was thoroughly mixed with this cover soil, and the herbicide/soil mixture was used as a cover layer for the previously prepared pan. In Table A below the amounts of active ingredient were all equivalent to an application rate of 11.2 kilograms/hectare (kg/ha). After treatment, the pans were moved to a greenhouse bench where they were watered as needed to give adequate moisture for germination and growth.
(§5) Approximately 10-14 days (usually 11 days) after planting and treating, the plants were observed and the results recorded.
(§6) The plant species usually regarded as weeds which were utilized in one set of pre-emergent activity tests, the data for which are shown in Table A, are identified by letter headings printed diagonally above the columns according to the following legend: […]

A further assay deals with Indian Mustard. The conditions noted are these: Brassica juncea, pre-emergence, Inmu, 11.2 kg/ha, 10-14 days, read-out: herbicidal rating (% inhibition). The method, then:
as §2, §3, §4, §5, §6

In the next assay the test system is Seedling Johnsongrass. The conditions noted are these: Sorghum halepense, pre-emergence, Sejg, 11.2 kg/ha, 10-14 days, read-out: herbicidal rating (% inhibition). Here is the method:
as §2, §3, §4, §5, §6

Another assay concerns Wild Buckwheat. Conditions: Fallopia convolvulus, pre-emergence, Wibw, 11.2 kg/ha, 10-14 days, read-out: herbicidal rating (% inhibition). The method, then:
as §2, §3, §4, §5, §6

The structures appear in SMILES notation.

On to `COC(=O)c1c(OC)nc(C(F)(F)F)c(C#N)c1CC(C)C` [Compound 106, 3-pyridinecarboxylic acid, 5-cyano-2-methoxy-4-(2-methylpropyl)-6-(trifluoromethyl)-, methyl ester], for which the inhibition – broadly, the drop in the measured response relative to a control, in per cent – at 11200 g/ha fell in the range of 0 to 24% with Velvetleaf; 0 to 24% in the assay on Cocklebur; 75 to 100% with Downy Brome; 50 to 74% in the assay with Morningglory; 0 to 24% in the assay on Yellow Nutsedge; 75 to 100% with Barnyardgrass. The inhibition at 11200 g/ha lay in the range of 75 to 100% in the assay on Annual Bluegrass, 75 to 100% in the assay on Indian Mustard, 0 to 24% in the assay with Seedling Johnsongrass and 75 to 100% in the assay with Wild Buckwheat.

Regarding `COC(=O)c1c(OC)nc(C(F)(F)F)c(C(=O)n2cc(NC(C)=O)cn2)c1CC(C)C` [Compound 107, 3-pyridinecarboxylic acid, 5-[[4-(acetylamino)-1H-pyrazol-1-yl]carbonyl]-2-methoxy-4-(2-methylpropyl)-6-(trifluoromethyl)-, methyl ester], the inhibition at 11200 g/ha in the assay on Velvetleaf lay in the range of 75 to 100%; in the assay with Cocklebur it was 0 to 24%; in the assay with Downy Brome, 0 to 24%; with Morningglory it was 75 to 100%; with Yellow Nutsedge, 0 to 24%; in the assay with Barnyardgrass, 75 to 100%. The inhibition at 11200 g/ha in the assay with Annual Bluegrass was 75 to 100%; with Indian Mustard, 75 to 100%; in the assay on Seedling Johnsongrass, 75 to 100%; with Wild Buckwheat, 50 to 74%.

For `COC(=O)c1c(OC)nc(C(F)(F)F)c(C(=O)n2cc(N)cn2)c1CC(C)C` [Compound 108, 3-pyridinecarboxylic acid, 5-[(4-amino-1H-pyrazo1-1-yl)carbonyl]-2-methoxy-4-(2-methylpropyl)-6-(trifluoromethyl)-, methyl ester], the inhibition at 11200 g/ha with Velvetleaf fell in the range of 50 to 74%; with Cocklebur, 0 to 24%; in the assay with Downy Brome, 0 to 24%; with Morningglory, 0 to 24%; in the assay with Yellow Nutsedge, 0 to 24%; with Barnyardgrass, 75 to 100%. The inhibition at 11200 g/ha in the assay with Annual Bluegrass lay in the range of 75 to 100%; in the assay with Indian Mustard it was 75 to 100%; in the assay with Seedling Johnsongrass, 50 to 74%; in the assay on Wild Buckwheat it was 75 to 100%.

For `COC(=O)c1c(OC)nc(C(F)(F)F)c(C2OCCO2)c1CC(C)C` [Compound 109, 3-pyridinecarboxylic acid, 5-(1,3-dioxolan-2-yl)-2-methoxy-4-(2-methylpropyl)-6-(trifluoromethyl)-, methyl ester], the inhibition at 11200 g/ha in the assay on Velvetleaf, in the assay on Cocklebur, in the assay on Downy Brome, in the assay on Morningglory, with Yellow Nutsedge and in the assay on Barnyardgrass was 75 to 100% in each case. Also, the inhibition at 11200 g/ha in the assay on Annual Bluegrass, in the assay on Indian Mustard, with Seedling Johnsongrass and in the assay with Wild Buckwheat was 75 to 100% throughout.

For the compound `COC(=O)c1c(OC)nc(C(F)(F)F)c(C2OCCCO2)c1CC(C)C` [Compound 110, 3-pyridinecarboxylic acid, 5-(1,3-dioxan-2-yl)-2-methoxy-4-(2-methylpropyl)-6-(trifluoromethyl)-, methyl ester], the inhibition at 11200 g/ha was in the range of 75 to 100% in the assay on Velvetleaf; 75 to 100% with Cocklebur; 75 to 100% in the assay with Downy Brome; 75 to 100% with Morningglory; 50 to 74% in the assay with Yellow Nutsedge; 75 to 100% in the assay with Barnyardgrass. Further, the inhibition at 11200 g/ha in the assay on Annual Bluegrass, in the assay with Indian Mustard, in the assay with Seedling Johnsongrass and with Wild Buckwheat was 75 to 100% throughout.

Consider `COC(=O)c1c(OC)nc(C(F)(F)F)c(C(=O)n2cc(C#N)cn2)c1CC(C)C` [Compound 111, 3-pyridinecarboxylic acid, 5-[(4-cyano-1H-pyrazo1-1-yl)carbonyl]-2-methoxy-4-(2-methylpropyl)-6-(trifluoromethyl)-, methyl ester], for which the inhibition at 11200 g/ha in the assay with Velvetleaf was 75 to 100%; with Cocklebur it was 0 to 24%; in the assay on Downy Brome it was 50 to 74%; with Morningglory it was 75 to 100%; in the assay on Yellow Nutsedge, 0 to 24%; in the assay with Barnyardgrass it was 75 to 100%. Besides, the inhibition at 11200 g/ha in the assay with Annual Bluegrass, in the assay on Indian Mustard, in the assay on Seedling Johnsongrass and in the assay on Wild Buckwheat was 75 to 100% throughout.

Take `COC(=O)c1c(OC)nc(C(F)(F)F)c(C(=O)OCC(F)(F)F)c1CC(C)C` [Compound 112, 3,5-pyridinedicarboxylic acid, 2-methoxy-4-(2-methylpropyl)-6-(trifluoromethyl)-, 3-methyl 5-(2,2,2-trifluoroethyl) ester]: the inhibition at 11200 g/ha in the assay with Velvetleaf is 75 to 100%; in the assay with Cocklebur, 0 to 24%; in the assay on Downy Brome, 75 to 100%; with Morningglory it was 50 to 74%; in the assay with Yellow Nutsedge, 0 to 24%; in the assay on Barnyardgrass, 75 to 100%. Further, the inhibition at 11200 g/ha with Annual Bluegrass, in the assay on Indian Mustard, with Seedling Johnsongrass and in the assay on Wild Buckwheat was 75 to 100% throughout.

As for `COC(=O)c1c(OC)nc(C(F)(F)F)c(-c2cnco2)c1CC(C)C` [Compound 114, 3-pyridinecarboxylic acid, 2-methoxy-4-(2-methylpropyl)-5-(5-oxazolyl)-6-(trifluoromethyl)-, methyl ester], the inhibition at 11200 g/ha with Velvetleaf lay within 75 to 100%; with Cocklebur, 0 to 24%; in the assay on Downy Brome, 75 to 100%; with Morningglory, 50 to 74%; in the assay on Yellow Nutsedge, 25 to 49%; in the assay on Barnyardgrass, 75 to 100%. The inhibition at 11200 g/ha in the assay with Annual Bluegrass, with Indian Mustard, in the assay on Seedling Johnsongrass and in the assay on Wild Buckwheat was 75 to 100% in each case.

Consider `COC(=O)c1c(OC)nc(C(F)(F)F)c(C=O)c1CC1CC1` [Compound 115, 3-pyridinecarboxylic acid, 4-(cyclopropylmethyl)-5-formy1-2-methoxy-6-(trifluoromethyl)-, methyl ester], for which the inhibition at 11200 g/ha lay in the range of 50 to 74% in the assay with Velvetleaf; 0 to 24% with Cocklebur; 75 to 100% with Downy Brome; 50 to 74% in the assay on Morningglory; 25 to 49% in the assay with Yellow Nutsedge; 75 to 100% in the assay on Barnyardgrass. Besides, the inhibition at 11200 g/ha in the assay with Annual Bluegrass lay in the range of 75 to 100%; in the assay on Indian Mustard it was 75 to 100%; with Seedling Johnsongrass, 75 to 100%; with Wild Buckwheat, 50 to 74%.

Regarding `COC(=O)c1c(OC)nc(C(F)(F)F)c(CO)c1CC1CC1` [Compound 117, 3-pyridinecarboxylic acid, 4-(cyclopropylmethyl)-5-(hydroxymethyl)-2-methoxy-6-(trifluoromethyl)-, methyl ester], the inhibition at 11200 g/ha with Velvetleaf is 25 to 49%; in the assay on Cocklebur it was 0 to 24%; in the assay on Downy Brome it was 0 to 24%; with Morningglory it was 0 to 24%; in the assay with Yellow Nutsedge, 0 to 24%; in the assay with Barnyardgrass, 75 to 100%. The inhibition at 11200 g/ha in the assay on Annual Bluegrass lay within 75 to 100%; with Indian Mustard, 50 to 74%; in the assay with Seedling Johnsongrass, 75 to 100%; in the assay with Wild Buckwheat, 50 to 74%.

For the origin of these results see US5391540A, “Substituted pyridine compounds” (Rohm and Haas Company, priority 1993, dated 1995).
